Results as given in patent US20170100345A1, “WOUND HEALING USING BRAF INHIBITORS” (THE REGENTS OF THE UNIVERSITY OF CALIFORNIA, priority 2014, published 2017).
“And” between values parts separate entries of the source, which are not always exact repeats. Equal entries are not always repeated. “Also recorded” adds a separate entry of the source.

Tests used:
[1] = test system: BRAF^V600E mutant melanoma line M249; assay: three-dimensional soft agar colony assay, M249; assay type: cell-based, human; settings: M249, with vs without exposure
Text: (§1) FIG. 2 illustrates that BRAF inhibition induces paradoxical MAPK activation in human keratinocytes leading to increased proliferation. FIG. 2A is a quantitative analysis of proliferation and scratch healing as the percentage relative wound density of cells at different time points in replicate cultures of HEKa in the presence or absence of vemurafenib by automated microscope analyzer. P value <0.0044 by t-test. […] FIG. 2C illustrates fold-change representation of colony quantification of HEKa and M249 cells grown in soft-agar with or without exposure to vemurafenib. […] The co-expression levels of pERK and Ki67 are shown in the middle of the panel, and quantified and represented a fold change on the left.
(§2) Quantitative analysis of proliferation is represented in FIG. 2A.
(§3) Human epithelial adult keratinocytes (HEKa) cultured in 96-well plates were subject to a scratch assay, where proliferating keratinocytes should regrow and cover the scratch. Replicate cultures with or without the BRAF inhibitor vemurafenib were placed in an incubator with an automated microscope analyzer and the number of nucleated cells in the original scratch was recorded over time. […] Using these cultures, paradoxical MAPK activation and cell proliferation were analyzed by western blot (FIGS. 2F-2G) and quantitative phosphoflow cytometry (FIG. 2H and FIGS. 4A-4B).

[2] = test system: skin wounds and their surroundings; assay: histological analysis (H&E) of healing wounds in mice; assay type: in vivo
Text: FIG. 6 is a schematic representation of the pathological analysis of wound healing on days 1 (D1), 2 (D2) and 6 (D6) post-treatment. […] Wound-adjacent epidermis undergoes hyperplasia and proliferation and epidermal cells from this process migrate centrally to seal the incised epidermal deficiency. The space of the incision fills initially with fibrin, which is then colonized by fibroblasts, macrophages, polymorphonuclear cells and new capillaries. […] Each bar includes data from 4 samples.
The area of the wounds and their surroundings were analyzed histologically by H&E staining by two pathologists and the extent of epidermal hyperplasia on both sides of the healing wounds was measured on days 1, 2 and 6 post-treatment (FIGS. 6A and 6B).

[3] = test system: 2.5 cm dorsal skin wound; assay: wound-healing assay in C3H mice, wound tensile strength by tensiometer; assay type: in vivo
Procedure: FIG. 5A is a schematic representation of the wound-healing assay performed in […] mice according to some embodiments.
In a controlled wound-healing assay in C3H mice, a 2.5 cm dorsal skin wound was induced and was filled with either vehicle control (DMSO/saline) or a suspension of 2 mM of vemurafenib (obtained by crushing clinical grade pills of this agent) in vehicle. The skin wounds were surgically clipped on day 0 and mice were followed until day 14 (FIGS. 5A-5B). Over this time, the vemurafenib suspension or vehicle control was applied topically every other day to 24 mice in the test group or to 24 mice in the control group, respectively, for a total of seven doses per mouse. On day 14, the mice were euthanized and the skin containing the wound was removed and mounted in 20 mm strips with a horizontal wound sample in each strip. The wound tensile strength (WTS) was analyzed using a tensiometer that stretched the strips and recorded the WTS in gram force (gf).

[4] = test system: pERK and Ki67 in BRAF^V600E mutant human melanoma cell line M249; assay: MAPK signaling and cell proliferation by western blot and phosphoflow cytometry, M249; assay type: cell-based; settings: western blot and phosphoflow (VEM 2 μM)
Text: as §1, §3

[5] = test system: Human epithelial adult keratinocytes (HEKa); assay: scratch assay of HEKa, automated microscope analyzer; assay type: cell-based; settings: HEKa with vs without vemurafenib; evident at 6, 8 and 12 hours
Text: as §1, §2, §3

[6] = test system: HEKa; assay: three-dimensional soft agar colony assay, HEKa; assay type: cell-based, human
Text: as §1, §2, §3

[7] = test system: pERK and Ki67 in HEKa cells; assay: paradoxical MAPK activation and cell proliferation by western blot and phosphoflow cytometry, HEKa; assay type: cell-based, human; settings: western blot and phosphoflow (VEM 2 μM)
Text: as §1, §3

[8] = test system: MAPK and wound healing pathway output; assay: RNASeq gene expression profiling of healing cutaneous wounds; assay type: in vivo, mice
Procedure: The skin samples obtained from mice treated either with vemurafenib or vehicle were analyzed for changes in MAPK and wound healing pathway output by RNASeq. The gene output of MAPK was compared to published data on the transcripts that were differentially modulated by blocking oncogenic MAPK signaling downstream of mutated BRAF^V600E using BRAF inhibitors, or to a published cutaneous wound healing gene signature.

[9] = test system: Human epithelial adult keratinocytes (HEKa); assay: cell proliferation wound-healing assay, 96 well plates with seeder stoppers; assay type: cell-based; settings: 24 hours, vs control treated wells
Text: as §1, §3

CCCS(=O)(=O)Nc1ccc(F)c(C(=O)c2c[nH]c3ncc(-c4ccc(Cl)cc4)cc23)c1F [vemurafenib]
number of M249 colonies in soft agar [1]: decrease in colonies | wounds re-epithelialized ([2]; by day 6): 100% | extent (length) of epidermal hyperplasia vs other treated groups ([2]; day 1 and 2): epidermal hyperplasia over a greater distance than the other treated groups | wound-adjacent epidermal inflammation ([2]; day 1 post-incision): more extensive | wound-adjacent (peri-lesional) epidermal hyperplasia, photomicrographs ([2]; day 2 post-incision): more extensive | dermal reparative / sub-epidermal fibrosis ([2]; day 6): beginning of sub-epidermal fibrosis | extent (length) of epidermal hyperplasia vs other treated groups ([2]; day 6): less epidermal hyperplasia | skin surface integrity ([2]; day 6): surface integrity was re-established; also recorded: Skin surface integrity re-established in 6 days | healing process / signs of healing or repair (pathologists' assessment) ([2]; days 1 to 6): the healing process is accelerated | onset of re-epithelialization ([2]; from day 2): strong and rapid re-epithelialization starting at day 2 | improvement in wound tensile strength (WTS) compared to saline control ([3]; C3H mice, 2 mM suspension topically every other day, day 14, three independent replicate experiments (#1-3)): 52.6% and 32.9% and 42.8% | improvement in WTS vs. vehicle control ([3]; separate cutaneous wound-healing assay (Experiment #4), trametinib 1 mg/kg where added): 37% | tensile strength of healing wounds (in words) ([3]; wound-healing mouse model, topically applied): improved the tensile strength of healing wounds | cell cycle (Ki67) [4]: cell cycle arrest | pERK [4]: decreased pERK | covering of the original scratch (proliferation and scratch healing, relative wound density) [5]: accelerated the proliferation and migration of human keratinocytes; also recorded: statistically significant improvement in the covering of the original scratch | mean spot size of HEKa colonies ([6]; soft agar): increased significantly | number of HEKa colonies in soft agar ([6]; with vs without exposure): increased in number | cell cycle (Ki67) [7]: cell cycle progression | pERK [7]: paradoxical increase in pERK | BRAF and wound-healing signatures, later course ([8]; after day 6, time point not given): more pronounced decrease | BRAF signature genes ([8]; day 2, vs control): slight increase | wound-healing signature genes ([8]; day 2, vs control): almost no change | BRAF signature genes ([8]; day 6, vs control): enriched significantly | wound-healing signature genes ([8]; day 6, vs control): enriched significantly | covering of the center of the wells by proliferating/migrating keratinocytes [9]: covered the center of the wells after 24 hours
